# US20200345021A1, “METHOD AND SYSTEM FOR ENHANCING THE EFFICACY USING IONIZED/A[…] PEROXIDE IN REDUCING MICROBIAL POPULATIONS, METHOD OF USE THEREOF” (priority 2019, published 2020)
# Where “and” joins values, the source holds several entries; their conditions need not be identical. Identical values can stand only once. Like-named read-outs stand apart in the source and are kept apart here. Marks after values point to notes of the source that are not given here.
# Tests used:
# S. Typhimurium = settings: for Populations of S. Typhimurium, treated / Reductions of S. Typhimurium: with cold plasma
# Excerpt: To minimize the risk of possible bacteria becoming airborne during treatments, attenuated and non-pathogenic bacteria were used in the study. Two strains of non-pathogenic S. Typhimurium (ATCC 53647 and 53648) and three strains of L. innocua (ATCC 33090, ATCC 51742 and ATCC BAA680) were obtained from American Type Culture Collection (ATCC) (Manassas, Va., USA). Further studies used E. coli O157:H7 (ATCC 700728), S. Typhimurium (ATCC 53647 and 53648), and L. innocua (ATCC 33090) obtained from American Type Culture Collection (ATCC) (Manassas, Va., USA) and maintained as a part of the culture collection at the USDA Eastern Regional Research Center (Wyndmoor, Pa. USA). The bacteria were made to be resistant to nalidixic acid by successive growth in Trypic Soy Broth (TSB) (Difco, Sparks, Md., USA) with increasing nalidixic acid concentrations. All strains were stored at −80° C. in 1 mL of TSB containing 10% glycerol. Working cultures of S. Typhimurium and L. innocua were maintained in 9 mL TSB (supplemented with 100 μg/mL nalidixic acid for S. Typhimurium) at 4° C. after incubating at 37° C. for […], respectively, and sub-cultured each time.
# Each strain of S. Typhimurium and L. innocua was cultured in 9 mL TSB (supplemented with 100 μg/mL nalidixic acid for S. Typhimurium) and incubated at 37° C. for 40 h and 48 h, respectively, harvested by centrifugation at 4000×g for 10 min at 4° C., and resuspended in 9 mL sterile Buffered Peptone Water (BPW; Difco). The pellets were resuspended in BPW to form cell suspensions with a final concentration of 108˜10^9 CFU/mL. Subsequently, suspended pellets of two strains of Salmonella and three strains of L. innocua were combined to obtain two separate culture cocktails.
# Grape tomatoes, granny smith apples, romaine lettuce and cantaloupes were purchased from local markets (Philadelphia, Pa., USA) and kept at 10° C. prior to use. Fruits and vegetables were removed from 10° C. refrigeration and equilibrated to ambient temperature before being inoculated. Romaine lettuce was divided into upper green leaf and midrib tissues. Six tomatoes, six pieces (2×2 cm) of apple skins, five pieces (3×3 cm) of Romaine lettuce upper leaves, five pieces (3 cm length) of Romaine lettuce midrib area and six pieces (2×2 cm) of cantaloupe rinds with 2×3 mm thickness of flesh were used for each treatment per replicate. Bach piece w as spot inoculated with 10 μL of Salmonella and L. innocua by depositing droplets with a micropipette. The inoculated samples were dried in a bio-hood for 1 h (for tomato surfaces, romaine lettuce, apple skins and cantaloupe rinds) or 2 h (for tomato stem scars) at ambient temperature.
# Produce items were placed onto a sterile test tube rack with the inoculated area facing up and the rack with produce pieces were placed inside of a treatment chamber (12×12×24 inch).
# For tomato surfaces and apple skins, the treatment times (spray times) were set as 5, 8 and 10 s followed by 30 min dwell time. For upper leaves and midrib tissues of Romaine lettuce, the treatment times were 10, 20, 30 and 60 s followed by 30 min dwell time. For cantaloupe rinds, the treatment times were set as 10, 30 and 60 s followed by 30 min dwell time. For tomato stem scars, the treatment procedure included 5.8, 10, 20, 30, 60 s followed by 30 min dwell time, 6 cycles composed of 10 s treatment time followed by 10 min dwell time per cycle, and 3 cycles composed of 20 s treatment time followed by 20 min dwell time per cycle. A fan (E.Z.FAN, FP-108-1, Common Wealth Industrial Corp., Taiwan) was used in the chamber to facilitate the uniform distribution of mist during dwell time.
# After each treatment, the tomato stem scars and surfaces with the inoculated bacteria were removed using a pair of sterile scissors.
# [1] = Excerpt: Specifically, a scanning mobility particle sizer (SMPS Model 3080, TSI inc., Shoreview, Minn., USA) and an aerodynamic particle sizer (APS Model 3321, TSI Inc.) were connected to the treatment chamber through an access port in the back of the treatment chamber to measure droplet sizes ranging from 2.5 to 210 nm, and from 0.5 to 20 μm, respectively.
# [2] = Granny Smith apple skins, treatment time 5 s + 30 min dwell
# [3] = Romaine lettuce leaves (upper leaf), treatment time 10 s + 30 min dwell
# [4] = Romaine lettuce leaves (upper leaf), treatment time 20 s + 30 min dwell
# [5] = Romaine lettuce leaves (upper leaf), treatment time 60 s + 30 min dwell
# [6] = Romaine lettuce midrib area, treatment time 10 s + 30 min dwell
# [7] = Romaine lettuce midrib area, treatment time 20 s + 30 min dwell
# [8] = Romaine lettuce midrib area, treatment time 60 s + 30 min dwell
# [9] = cantaloupe rinds, treatment time 10 s + 30 min dwell
# [10] = cantaloupe rinds, treatment time 60 s + 30 min dwell
# [11] = grape tomato stem scars, 10s × 6 (6 cycles of 10 s spray time followed by 10 min dwell time)
# [12] = grape tomato stem scars, treatment time 8 s + 30 min dwell
# [13] = grape tomato stem scars, treatment time 10 s + 30 min dwell
# [14] = grape tomato stem scars, treatment time 20 s + 30 min dwell
# [15] = grape tomato stem scars, treatment time 30 s + 30 min dwell
# [16] = grape tomato surfaces, treatment time 5 s + 30 min dwell
# [17] = treatment chamber, immediately after introduction
smiles,measurement,setting,value
"OO [H2O2, hydrogen peroxide]","Populations of S. Typhimurium, treated",S. Typhimurium; [2],4.09 ± 0.13^a log CFU/piece
same,Reductions of S. Typhimurium,S. Typhimurium; [2],1.63 ± 0.35^b log CFU/piece
same,"Populations of S. Typhimurium, treated","S. Typhimurium; Granny Smith apple skins, treatment time 8 s + 30 min dwell, ND: not detectable (detection limit 0.70 log CFU/piece)",< 0.70 log CFU/piece
same,Reductions of S. Typhimurium,"S. Typhimurium; Granny Smith apple skins, treatment time 8 s + 30 min dwell, listed as hydrogen peroxide (H2O2) with cold plasma",more than 5 log CFU/piece
same,Reductions of S. Typhimurium,"S. Typhimurium; Granny Smith apple skins, treatment time 8 s + 30 min dwell, listed as ionized hydrogen peroxide",> 5 log CFU/piece
same,"Populations of S. Typhimurium, treated",S. Typhimurium; [3],5.45 ± 0.34^a log CFU/piece
same,Reductions of S. Typhimurium,S. Typhimurium; [3],0.79 ± 0.16^c log CFU/piece
same,"Populations of S. Typhimurium, treated",S. Typhimurium; [4],3.98 ± 0.37^b log CFU/piece
same,Reductions of S. Typhimurium,S. Typhimurium; [4],1.98 ± 0.24^b log CFU/piece
same,"Populations of S. Typhimurium, treated","S. Typhimurium; Romaine lettuce leaves (upper leaf), treatment time 30 s + 30 min dwell",3.54 ± 0.11^b log CFU/piece
same,Reductions of S. Typhimurium,"S. Typhimurium; Romaine lettuce leaves (upper leaf), treatment time 30 s + 30 min dwell, listed as ionized hydrogen peroxide",2.86 log CFU/piece and 2.86 ± 0.17^a log CFU/piece
same,"Populations of S. Typhimurium, treated",S. Typhimurium; [5],3.57 ± 0.25^b log CFU/piece
same,Reductions of S. Typhimurium,S. Typhimurium; [5],2.79 ± 0.20^a log CFU/piece
same,"Populations of S. Typhimurium, treated",S. Typhimurium; [6],4.81 ± 0.22^a log CFU/piece
same,Reductions of S. Typhimurium,S. Typhimurium; [6],1.53 ± 0.23^c log CFU/piece
same,"Populations of S. Typhimurium, treated",S. Typhimurium; [7],4.09 ± 0.25^b log CFU/piece
same,Reductions of S. Typhimurium,S. Typhimurium; [7],2.04 ± 0.33^b log CFU/piece
same,"Populations of S. Typhimurium, treated","S. Typhimurium; Romaine lettuce midrib area, treatment time 30 s + 30 min dwell",2.54 ± 0.32^c log CFU/piece
same,Reductions of S. Typhimurium,"S. Typhimurium; Romaine lettuce midrib area, treatment time 30 s + 30 min dwell, listed as ionized hydrogen peroxide",3.63 log CFU/piece and 3.63 ± 0.21^a log CFU/piece
same,"Populations of S. Typhimurium, treated",S. Typhimurium; [8],2.94 ± 0.18^c log CFU/piece
same,Reductions of S. Typhimurium,S. Typhimurium; [8],3.13 ± 0.48^a log CFU/piece
same,"Populations of S. Typhimurium, treated",S. Typhimurium; [9],4.39 ± 0.32^a log CFU/piece
same,Reductions of S. Typhimurium,S. Typhimurium; [9],1.50 ± 0.21^b log CFU/piece
same,"Populations of S. Typhimurium, treated","S. Typhimurium; cantaloupe rinds, treatment time 30 s + 30 min dwell",4.09 ± 0.24^a log CFU/piece
same,Reductions of S. Typhimurium,"S. Typhimurium; cantaloupe rinds, treatment time 30 s + 30 min dwell, listed as ionized hydrogen peroxide",2.48 log CFU/piece and 2.48 ± 0.68^a log CFU/piece
same,"Populations of S. Typhimurium, treated",S. Typhimurium; [10],3.23 ± 0.28^b log CFU/piece
same,Reductions of S. Typhimurium,S. Typhimurium; [10],2.44 ± 0.32^a log CFU/piece
same,"Populations of S. Typhimurium, treated",S. Typhimurium; [11],3.89 ± 0.39^ab log CFU/piece
same,Reductions of S. Typhimurium,S. Typhimurium; [11],2.19 ± 0.41^b log CFU/piece
same,"Populations of S. Typhimurium, treated","S. Typhimurium; grape tomato stem scars, listed as printed 20s × 6 (title: 20s×3, 3 cycles of 20 s spray time with 20 min dwell time)",3.60 ± 0.42^b log CFU/piece
same,Reductions of S. Typhimurium,"S. Typhimurium; grape tomato stem scars, listed as printed 20s × 6 (title: 20s×3, 3 cycles of 20 s spray time with 20 min dwell time), listed as ionized hydrogen peroxide",2.73 log CFU/piece and 2.73 ± 0.28^a log CFU/piece
same,"Populations of S. Typhimurium, treated","S. Typhimurium; grape tomato stem scars, treatment time 5 s + 30 min dwell",4.26 ± 0.89^ab log CFU/piece
same,Reductions of S. Typhimurium,"S. Typhimurium; grape tomato stem scars, treatment time 5 s + 30 min dwell, listed as ionized hydrogen peroxide",1.06 log CFU/piece and 1.06 ± 0.35^d log CFU/piece
same,"Populations of S. Typhimurium, treated",S. Typhimurium; [12],4.23 ± 0.31^ab log CFU/piece
same,Reductions of S. Typhimurium,S. Typhimurium; [12],1.22 ± 0.28^d log CFU/piece
same,"Populations of S. Typhimurium, treated",S. Typhimurium; [13],4.26 ± 0.71^ab log CFU/piece
same,Reductions of S. Typhimurium,S. Typhimurium; [13],1.20 ± 0.14^d log CFU/piece
same,"Populations of S. Typhimurium, treated",S. Typhimurium; [14],4.71 ± 0.26^ab log CFU/piece
same,Reductions of S. Typhimurium,S. Typhimurium; [14],1.51 ± 0.34^cd log CFU/piece
same,"Populations of S. Typhimurium, treated",S. Typhimurium; [15],4.31 ± 0.20^a log CFU/piece
same,Reductions of S. Typhimurium,S. Typhimurium; [15],1.85 ± 0.11^bc log CFU/piece
same,"Populations of S. Typhimurium, treated","S. Typhimurium; grape tomato stem scars, treatment time 60 s + 30 min dwell",3.85 ± 0.66^ab log CFU/piece
same,Reductions of S. Typhimurium,"S. Typhimurium; grape tomato stem scars, treatment time 60 s + 30 min dwell, listed as ionized hydrogen peroxide",2.16 log CFU/piece and 2.16 ± 0.43^b log CFU/piece
same,"Populations of S. Typhimurium, treated",S. Typhimurium; [16],4.44 ± 0.25^a log CFU/piece
same,Reductions of S. Typhimurium,S. Typhimurium; [16],1.84 ± 0.43^b log CFU/piece
same,"Populations of S. Typhimurium, treated","S. Typhimurium; grape tomato surfaces, treatment time 8 s + 30 min dwell, ND: not detectable (detection limit 0.70 log CFU/piece)",< 0.70 log CFU/piece
same,Reductions of S. Typhimurium,"S. Typhimurium; grape tomato surfaces, treatment time 8 s + 30 min dwell, listed as hydrogen peroxide (H2O2) with cold plasma",more than 5 log CFU/piece
same,Reductions of S. Typhimurium,"S. Typhimurium; grape tomato surfaces, treatment time 8 s + 30 min dwell, listed as ionized hydrogen peroxide",> 5 log CFU/piece
same,Reductions of S. Typhimurium,"S. Typhimurium; grape tomato surfaces, treatment time 10 s + 30 min dwell",5.65 ± 0.21^a log CFU/piece
same,log reduction of Salmonella on other fresh produce items,"S. Typhimurium; produce other than smooth surfaces of tomatoes and apples, applied for a longer time period",≤ 3.6 log
same,log reductions of Salmonella on rough surfaces,"S. Typhimurium; rough surfaces (tomato stem scars, cantaloupe rinds), similar treatment times",2.8-3.6 log
same,log reductions of Salmonella on smooth surfaces,"S. Typhimurium; smooth surfaces (apples, tomatoes), 8-10 s treatment time + 30 min dwell time",greater than 5 log
same,Nanosize droplets remained in the treatment chamber,[1]; after 30 min (end of treatment),about 8%
same,Share of droplets in the range of <5 μm,"[1]; micrometer range, immediately after introduction",About 80%
same,Mean diameter of droplets in the micrometer range,[1]; [17],3.0 μm
same,Mean diameter of nanosize droplets,[1]; [17],40.3 nm
same,Mode (peak) of nanosize droplets,[1]; [17],33.4 nm
same,Mode of droplets in the micrometer range,[1]; [17],4.0 μm
same,Total number of droplets in micrometer range (0.5-20 μm),[1]; [17],4390 #/cc
same,Total number of droplets in the nanosize range,[1]; [17],"84,000 #/cc"
same,Reduction of E. coli populations,E. coli O157:H7,1.5 log
